Series [1] in a line: Permeability in human Caco-2 cells. In kind it is ADME, cell-based. The settings on record: read-out: permeability. In general terms: Caco-2 cells form a polarised layer with tight junctions and transporters.
Series [2] is described as follows: Permeability in pig LLC-PK1 cells. Format: ADME, cell-based, Sus scrofa. Particulars: read-out: permeability.
Series [3] is described as follows: Aqueous solubility of the compound in FaSSIF. Format: physicochemical.
Series [4] can be described thus: Aqueous solubility of the compound in FaSSIF at pH 6.5 measured by dissolution tester. Format: physicochemical.
Series [5] is described as follows: Permeability in rat jejunum. Particulars: read-out: permeability. Format: ADME, tissue-based.
The nature of series [6]: Aqueous solubility of the compound. In kind it is physicochemical. Particulars: buffer.
Series [7] can be described thus: physchem. The settings on record: phosphate buffer, pH 6.8.
Description: Aqueous solubility of the compound in phosphate buffer at pH 6.8 measured after 72 hrs by UV-Vis spectrophotometer
Series [8] in a line: Permeability in MDCK-II cells. Format: ADME, cell-based, Canis lupus familiaris. The settings on record: dog, read-out: permeability.
Series [9] is described as follows: Aqueous solubility of the compound in buffer. In kind it is physicochemical.
The nature of series [10]: Aqueous solubility of the compound at pH 1.8. In kind it is physicochemical. Particulars: buffer.
Series [11] can be described thus: Aqueous solubility of the compound at pH 5. In kind it is physicochemical. Particulars: buffer.

≈ marks a conversion by molar mass, not a printed value. A value given as a limit tells only on which side of the number the result lay.

Turning to `CC(C)c1nc(CN(C)C(=O)N[C@H](C(=O)N[C@@H](Cc2ccccc2)C[C@H](O)[C@H](Cc2ccccc2)NC(=O)OCc2cncs2)C(C)C)cs1` [RITONAVIR], in series [1], the Papp is 20 ×10⁻⁶ cm/s.

As usually defined, the solubility is how much of the substance goes into solution per volume. A lower solubility goes with a poorly soluble substance. Take `C=C[C@@H]1C[C@]1(NC(=O)[C@@H]1C[C@@H]2CN1C(=O)[C@H](C(C)(C)C)NC(=O)O[C@@H]1C[C@H]1CCCCCc1nc3ccc(OC)cc3nc1O2)C(=O)NS(=O)(=O)C1CC1` [GRAZOPREVIR ANHYDROUS]: the Papp in [2] was found to be 19 ×10⁻⁶ cm/s. The solubility in series [3] is < 7 µg/mL.

In the case of `CCCS(=O)(=O)Nc1ccc(F)c(C(=O)c2c[nH]c3ncc(-c4ccc(Cl)cc4)cc23)c1F` [VEMURAFENIB], the Papp in [1] turned out to be 2.9 ×10⁻⁶ cm/s. Also, the concentration in solution in series [4] (solubility) came to 2 µg/mL (≈ 4.08 µM).

Regarding `C=CC[C@@H]1/C=C(\C)C[C@H](C)C[C@H](OC)[C@H]2O[C@@](O)(C(=O)C(=O)N3CCCC[C@H]3C(=O)O[C@H](/C(C)=C/[C@@H]3CC[C@@H](O)[C@H](OC)C3)[C@H](C)[C@@H](O)CC1=O)[C@H](C)C[C@@H]2OC` [TACROLIMUS ANHYDROUS], the Papp in series [5] amounted to 18 ×10⁻⁶ cm/s. For the same compound, in series [6], the concentration in solution (solubility) was 1.3 µg/mL (≈ 1.62 µM).

`CCC[C@H](NC(=O)[C@@H]1[C@H]2CCC[C@H]2CN1C(=O)[C@@H](NC(=O)[C@@H](NC(=O)c1cnccn1)C1CCCCC1)C(C)(C)C)C(=O)C(=O)NC1CC1` displayed a solubility at 72 h in series [7] of 4.7 µg/mL (≈ 6.91 µM). For the same compound, the Papp in series [1] was > 4.4 ×10⁻⁶ cm/s.

Take `COC(=O)N[C@H](C(=O)N1CCC[C@H]1c1nc2cc([C@H]3CC[C@H](c4cc5nc([C@@H]6CCCN6C(=O)[C@@H](NC(=O)OC)[C@@H](C)OC)[nH]c5cc4F)N3c3cc(F)c(N4CCC(c5ccc(F)cc5)CC4)c(F)c3)c(F)cc2[nH]1)[C@@H](C)OC` [PIBRENTASVIR]: the Papp in series [8] was < 1 ×10⁻⁶ cm/s.

As to `CC(C)(C)c1cc(C(C)(C)C)c(NC(=O)c2c[nH]c3ccccc3c2=O)cc1O` [IVACAFTOR], the solubility in series [9] is < 0.05 µg/mL.

Consider `COC(=O)N[C@H](C(=O)N1CCC[C@H]1c1nc(-c2ccc3c(c2)O[C@@H](c2ccccc2)n2c-3cc3cc(-c4c[nH]c([C@@H]5CCCN5C(=O)[C@@H](NC(=O)OC)C(C)C)n4)ccc32)c[nH]1)C(C)C` [ELBASVIR], for which the solubility is > 5 µg/mL in series [10] and 50 µg/mL (≈ 56.7 µM) in series [11]. Moreover, the Papp in series [8] came to 0.8 ×10⁻⁶ cm/s.

For `Cc1cc(C#N)cc(C)c1Oc1nc(Nc2ccc(C#N)cc2)nc(N)c1Br` [ETRAVIRINE], the solubility in series [6] was < 1 µg/mL.

For the compound `Cc1ccc(-n2nccn2)c(C(=O)N2CCN(c3nc4cc(Cl)ccc4o3)CC[C@H]2C)c1` [SUVOREXANT], the Papp in [2] was 22.8 ×10⁻⁶ cm/s. In [3], this compound yielded a solubility of 9 µg/mL (≈ 20 µM).
